# In the supplement of paper PMC10307832:
# Legend:
# Assay in all cases: relative viability (nuclei count vs DMSO), 5 days (fraction); higher = more cells survive
# 17-AAG + Alpelisib = compound: C=CCNC1=C2C[C@@H](C)C[C@H](OC)[C@H](O)[C@@H](C)/C=C(\C)[C@H](OC(N)=O)[C@@H](OC)/C=C\C=C(/C)C(=O)NC(=CC1=O)C2=O [17-AAG] + Cc1nc(NC(=O)N2CCC[C@H]2C(N)=O)sc1-c1ccnc(C(C)(C)C(F)(F)F)c1 [Alpelisib] (partner 2 µM)
# Procedure, shortened: (§1)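 Lung cancer cell lines in 1536-well plates got either a single drug or a fixed anchor-drug dose together with five library-drug doses (not always all listed) in √10 steps, by pin tool, on the day after seeding. Nuclei were counted after 5 days, and relative viability is the treated-to-vehicle ratio of nuclei counts. Values are medians of duplicate plates.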
# 17-AAG + Pemetrexed = compound: C=CCNC1=C2C[C@@H](C)C[C@H](OC)[C@H](O)[C@@H](C)/C=C(\C)[C@H](OC(N)=O)[C@@H](OC)/C=C\C=C(/C)C(=O)NC(=CC1=O)C2=O [17-AAG] + Nc1nc2[nH]cc(CCc3ccc(C(=O)N[C@@H](CCC(=O)O)C(=O)O)cc3)c2c(=O)[nH]1 [Pemetrexed] (partner 0.2 µM)
# Procedure, shortened: as §1
# 17-AAG + Olaparib = compound: C=CCNC1=C2C[C@@H](C)C[C@H](OC)[C@H](O)[C@@H](C)/C=C(\C)[C@H](OC(N)=O)[C@@H](OC)/C=C\C=C(/C)C(=O)NC(=CC1=O)C2=O [17-AAG] + O=C(c1cc(Cc2n[nH]c(=O)c3ccccc23)ccc1F)N1CCN(C(=O)C2CC2)CC1 [Olaparib] (partner 8 µM)
# Procedure, shortened: as §1
# 17-AAG + Foretinib = compound: C=CCNC1=C2C[C@@H](C)C[C@H](OC)[C@H](O)[C@@H](C)/C=C(\C)[C@H](OC(N)=O)[C@@H](OC)/C=C\C=C(/C)C(=O)NC(=CC1=O)C2=O [17-AAG] + COc1cc2c(Oc3ccc(NC(=O)C4(C(=O)Nc5ccc(F)cc5)CC4)cc3F)ccnc2cc1OCCCN1CCOCC1 [Foretinib] (partner 0.25 µM)
# Procedure, shortened: as §1
Cell Line,relative viability (17-AAG + Alpelisib; first compound 0.00128 µM),relative viability (17-AAG + Alpelisib; first compound 0.004048 µM),relative viability (17-AAG + Alpelisib; first compound 0.0128 µM),relative viability (17-AAG + Alpelisib; first compound 0.04048 µM),relative viability (17-AAG + Alpelisib; first compound 0.128 µM),relative viability (17-AAG + Pemetrexed; first compound 0.00128 µM),relative viability (17-AAG + Pemetrexed; first compound 0.004048 µM),relative viability (17-AAG + Pemetrexed; first compound 0.0128 µM),relative viability (17-AAG + Pemetrexed; first compound 0.04048 µM),relative viability (17-AAG + Pemetrexed; first compound 0.128 µM),relative viability (17-AAG + Olaparib; first compound 0.00128 µM),relative viability (17-AAG + Olaparib; first compound 0.004048 µM),relative viability (17-AAG + Olaparib; first compound 0.0128 µM),relative viability (17-AAG + Olaparib; first compound 0.04048 µM),relative viability (17-AAG + Olaparib; first compound 0.128 µM),relative viability (17-AAG + Foretinib; first compound 0.00128 µM),relative viability (17-AAG + Foretinib; first compound 0.004048 µM),relative viability (17-AAG + Foretinib; first compound 0.0128 µM),relative viability (17-AAG + Foretinib; first compound 0.04048 µM),relative viability (17-AAG + Foretinib; first compound 0.128 µM)
H3255,0.672,0.716,0.498,0.26,0.154,0.578,0.6,0.531,0.287,0.267,0.556,0.494,0.484,0.284,0.231,0.943,0.874,0.819,0.252,0.249
EPLC-272H,1.01,0.934,0.848,0.756,0.266,0.404,0.365,0.166,0.145,0.0977,0.721,0.662,0.195,0.0777,0.0732,0.704,0.412,0.772,0.216,0.125
RERF-LC-KJ,0.957,0.829,0.759,0.291,0.277,0.47,0.514,0.33,0.255,0.219,0.954,0.648,0.291,0.249,0.216,0.883,0.951,0.974,0.346,0.296
NCI-H1793,0.846,0.612,0.356,0.198,0.167,0.837,0.513,0.213,0.16,0.124,0.903,0.594,0.184,0.198,0.141,0.63,0.622,0.442,0.165,0.161
ChaGo-K-1,–,–,–,–,–,0.25,0.276,0.264,0.253,0.204,0.439,0.453,0.388,0.366,0.257,0.916,0.829,0.851,0.861,0.313
NCI-H1703,0.366,0.152,0.141,0.155,0.134,–,–,–,–,–,0.512,0.183,0.144,0.164,0.105,0.325,0.331,0.215,0.229,0.191
EBC-1,0.828,0.197,0.186,0.159,0.168,–,–,–,–,–,0.676,0.407,0.13,0.142,0.126,0.101,0.13,0.138,0.104,0.0946
NCI-H727,0.519,0.63,0.358,0.182,0.192,–,–,–,–,–,0.619,0.737,0.696,0.707,0.386,0.834,0.978,0.636,0.41,0.356
NCI-H1299,1.04,1.05,1,0.94,0.729,–,–,–,–,–,1.01,0.922,0.965,0.605,0.282,1.12,1.03,1.08,1.04,0.945
NCI-H1648,–,–,–,–,–,–,0.904,0.649,0.29,0.288,–,0.716,0.921,0.9,0.317,–,–,–,–,–
NCI-H1650,–,–,–,–,–,0.336,0.383,0.351,0.168,0.15,0.721,0.636,0.147,0.156,0.113,0.89,0.344,0.225,0.212,0.175
SW 900,–,–,–,–,–,0.455,0.437,0.242,0.139,0.168,0.892,0.491,0.244,0.192,0.163,0.868,0.735,0.39,0.119,0.0963
IA-LM,0.719,0.813,0.657,0.303,0.105,–,–,–,–,–,0.89,0.919,0.68,0.179,0.0981,1.21,1.05,1.19,0.491,0.313
NCI-H1563,0.964,0.853,0.616,0.591,0.514,0.773,0.898,0.468,0.452,0.414,–,–,–,–,–,1.04,0.83,0.559,0.549,0.5
HCC-44,0.792,0.742,0.656,0.449,0.138,0.639,0.619,0.649,0.694,0.352,0.976,0.989,1,0.997,0.492,–,–,–,–,–
NCI-H2342,–,–,–,–,–,0.803,0.854,0.782,0.589,0.39,0.506,0.4,0.487,0.437,0.374,0.97,1.04,0.968,0.846,0.374
ABC-1,1.05,1.19,0.691,0.976,0.919,–,–,–,–,–,0.677,0.847,0.737,0.954,0.486,0.9,0.882,1.08,1.05,0.432
NCI-H522,–,–,–,–,–,0.974,1.01,0.673,0.764,0.372,0.517,0.878,0.505,0.485,0.399,–,–,–,–,–
NCI-H1792,0.713,0.64,0.594,0.441,0.306,0.782,0.378,0.113,0.0425,0.0604,0.456,0.284,0.221,0.0633,0.0524,–,–,–,–,–
